Laboratory results taken from patent US7837670B2, “Methods and devices for delivering therapeutic agents into the prostate gland” (Boston Scientific Scimed, Inc., priority 2005, dated 2010).

Tests used:
[1] = Parallel autoradiography of liver and urogenital organs to test for regurgitation or escape into the blood stream
[2] = Autoradiography of the prostate after transurethral catheter injection of tritium labeled agent
BPH = details: only after 6 months of oral treatment; cited from earlier work
[3] = 6 hours after transurethral injection of 150 uCi 3H-flutamide
[4] = 24 hours after transurethral injection of 150 uCi 3H-flutamide
[5] = 48 hours after transurethral injection of 150 uCi 3H-flutamide

Compound	autoradiographic labeling of seminal vesicle, seminal duct and testicular samples ([1]; all time points (1, 6, 12, 24, 48 hours))	autoradiographic grains in the epididymis (regurgitation of the label) ([1]; epididymis, 6 hours after transurethral injection of 150 uCi)	autoradiographic grains in the liver (escape into systemic circulation) ([1]; liver, 48 hours after transurethral injection of 150 uCi)	diffuse (non-nuclear, including stroma) activity in prostate ([2]; 1 hour after transurethral injection of 150 uCi 3H-flutamide)	free (extra-nuclear) activity in prostate [2, 3]	glandular nuclear activity in prostate [2, 3]	glandular nuclear activity in prostate ([2]; 12 hours after transurethral injection of 150 uCi 3H-flutamide)	nuclear binding in prostate [2, 4]	unbound activity in prostate [2, 4]	extra-nuclear labeling in prostate [2, 5]	glandular nuclear activity in prostate [2, 5]	alleviation of BPH complaints, share of cases (BPH)
3H-flutamide [tritium labeled flutamide]	remained all negative	No grains are seen in the epididymis	No grains are seen in the liver	Strong, diffuse activity scattered over the whole prostate	periphery of the gland. Practically no free (extra-nuclear)	Strong, selective glandular (but not stromal or muscular)	Strong, selective glandular (but not stromal or muscular)	Strong nuclear binding	minimal unbound activity scattered	covers the whole prostate, minimal scattered extra-nuclear	Still strong, although somewhat less activity over the	
CC(C)(C)NC(=O)[C@H]1CC[C@H]2[C@@H]3CC[C@H]4NC(=O)C=C[C@]4(C)[C@H]3CC[C@]12C [finasteride]												about half of the cases
